This note sets out measurements from patent publication US12319683B2, “Azabenzimidazole compounds and pharmaceutical” (NIPPON SHINYAKU CO., LTD., priority 2018, dated 2025).

Data set [1] has as its system SD female rats. Briefly: Effect on the increase in intravesical pressure induced by electrical stimulation of the pelvic nerve in anesthetized rats. It counts as in vivo, rat. Conditions: for change in vivo at 0.3 mg/kg: Rattus norvegicus, iv, 1 h, read-out: Percentage Change (%) Rc of AUC of increase of intravesical pressure (maximum during 1 hour after administration). As for the experimental part: For evaluation of in vivo effect on neurogenic bladder contraction, effects of the test compounds on the increase in intravesical pressure induced by electrical stimulation of the pelvic nerve in rats were determined according to the following method.
SD female rats (Japan SLC, Inc.) were anesthetized by subcutaneous administration of 1200 mg/kg of urethane (Wako Pure Chemical Corporation), and the lower abdomens of the rats were incised in the midline. After the ureters were ligated and cut at locations proximal to the bladder, a cannula (PE-60, BECTON DICKINSON) for cystometry was inserted into the bladder through the external urethral orifice and fixed with sutures. After injecting saline (about 200 μL) via the cannula inserted into the bladder, the other end of the cannula was connected to a pressure transducer to measure intravesical pressure.
The pelvic nerve near the urinary bladder of the rat was gently separated and dissected under stereomicroscope observation and attached to an electrode for nerve stimulation (K2-14015M-PT, BrainScience idea. Co., Ltd.). The peritoneal cavity of the rat was filled with liquid paraffin (26114-75, NACALAI TESQUE, INC.). After the postoperative rest period, an electrical stimulator (SEN-7203, NIHON KOHDEN CORPORATION) was used to stimulate the pelvic nerve to induce increase in intravesical pressure. The stimulation frequency was 8 Hz, the pulse width was 0.3 ms, and the stimulation time was 10 seconds. The voltage of the electrical stimulator was adjusted so that the increase in intravesical pressure was about 50-70% of that at stimulation with 10 V.
The electric stimulation was repeated with an interval of 10 minutes. After the increase of intravesical pressure induced by electric stimulation was stabilized three times or more, a test compound (dosage 0.3 mg/kg), distigmine bromide (dosage 0.03, 0.1 mg/kg) or a vehicle was intravenously administered at 1.0 mL/kg via the catheter placed into femoral vein. The effect of the test compound on increase of intravesical pressure was measured for 1 hour. Saline was used as a vehicle, and the test compound was dissolved in dimethyl sulfoxide before adding to the vehicle. The final concentration of dimethyl sulfoxide was 10%.
The response data (intravesical pressure) were recorded on a personal computer via data collection and analysis system (PowerLab®, ADInstruments) and analyzed using analysis software (LabChart®, ADInstruments). For each electric stimulation, AUC of increase of intravesical pressure (area under the curve of transition of intravesical pressure) was calculated, and percentage change Rc (unit: %) compared to the value (AUC) before the administration of the test compound was calculated according to the following equation (2). In the equation (2), Ab is AUC before administering a test compound, and Aa is AUC after administering a test compound. In addition, the maximum effect observed during 1 hour after administering the test compound (maximum percentage change Rc) was defined as the effect of the test compound. The higher percentage change Rc, the higher effect on enhancement of bladder contraction force and increase of intravesical pressure. Rc=100×(Aa−Ab)/Ab (2)

Data set [2] deals with SD female rats. The data set is described as above. The note with it: intravenous, 0.1 mg/kg. It counts as in vivo, rat.
[3] abbreviates: anesthetized SD female rats, pelvic nerve electrical stimulation, test compound 0.3 mg/kg intravenously.

Counter-ions that a name gives are not always drawn. Like-named read-outs stand apart in the source and are kept apart here.

In the case of `CCOc1cc(-c2cc(N(C)CC(C)(C)COC)c3[nH]c(-c4cnc(N5CCC(C(=O)O)CC5)cn4)nc3n2)cc(C(F)(F)F)n1` [Example 1, 1-(5-{5-[2-Ethoxy-6-(trifluoromethyl)pyridin-4-yl]-7-[(3-methoxy-2,2-dimethylpropyl)(methyl)amino]-1H-imidazo[4,5-b]pyridin-2-yl}pyrazin-2-yl)piperidine-4-carboxylic acid], the change in vivo at 0.3 mg/kg in the data set on SD female rats [1] (setting [3]) came out at 326%. On the same count and under the same terms, in the case of `CCOc1cc(-c2cc(N(C)CC3(COC)CCCC3)c3[nH]c(-c4cnc(N5CCC(C(=O)O)CC5)cn4)nc3n2)cc(C(F)(F)F)n1` [Example 2, 1-(5-{5-[2-Ethoxy-6-(trifluoromethyl)pyridin-4-yl]-7-[{[1-(methoxymethyl)cyclopentyl]methyl}(methyl)amino]-1H-imidazo[4,5-b]pyridin-2-yl}pyrazin-2-yl)piperidine-4-carboxylic acid] it was 331%. The same measure, in the same setting: then `CCOCC1(CN(C)c2cc(-c3cnc(C4CC4)c(C(F)(F)F)c3)nc3nc(-c4cnc(N5CCC(C(=O)O)CC5)cn4)[nH]c23)CCCC1` [Example 3, 1-(5-{5-[6-Cyclopropyl-5-(trifluoromethyl)pyridin-3-yl]-7-[{[1-(ethoxymethyl)cyclopentyl]methyl}(methyl)amino]-1H-imidazo[4,5-b]pyridin-2-yl}pyrazin-2-yl)piperidine-4-carboxylic acid], with 311%. As for `COCC1(CN(C)c2cc(-c3cc(C4CC4)nc(C(F)(F)F)c3)nc3nc(-c4cnc(N5CCC(OCC(=O)O)CC5)cn4)[nH]c23)CCCC1` [Example 4, {[1-(5-{5-[2-Cyclopropyl-6-(trifluoromethyl)pyridin-4-yl]-7-[{[1-(methoxymethyl)cyclopentyl]methyl}(methyl)amino]-1H-imidazo[4,5-b]pyridin-2-yl}pyrazin-2-yl)piperidin-4-yl]oxy}acetic acid], the change in vivo at 0.3 mg/kg in the data set with SD female rats [1] (setting [3]) was 123%.

Consider `COCC1(CN(C)c2cc(-c3cnc(C4CC4)c(C(F)(F)F)c3)nc3nc(-c4cnc(N5CCN(CCC(=O)O)CC5)cn4)[nH]c23)CCCCC1` [Example 6, 3-[4-(5-{5-[6-Cyclopropyl-5-(trifluoromethyl)pyridin-3-yl]-7-[{[1-(methoxymethyl)cyclohexyl]methyl}(methyl)amino]-1H-imidazo[4,5-b]pyridin-2-yl}pyrazin-2-yl)piperazin-1-yl]propanoic acid], for which the change in vivo at 0.3 mg/kg in the data set with SD female rats [1] (setting [3]) came out at 571%. Still for that read-out and setting: in the case of `COCC1(CN(C)c2cc(-c3cnc(C4CC4)c(C(F)(F)F)c3)nc3nc(-c4cnc(N5CCN(CCC(=O)O)C[C@H]5C)cn4)[nH]c23)CCCCC1` [Example 7, 3-[(3R)-4-(5-{5-[6-Cyclopropyl-5-(trifluoromethyl)pyridin-3-yl]-7-[{[1-(methoxymethyl)cyclohexyl]methyl}(methyl)amino]-1H-imidazo[4,5-b]pyridin-2-yl}pyrazin-2-yl)-3-methylpiperazin-1-yl]propanoic acid] it was 608%. On the same count and under the same terms, in the case of `COC[C@@H]1CN(c2cnc(-c3nc4nc(-c5cnc(C6CC6)c(C(F)(F)F)c5)cc(N(C)CC5(COC)CCCCC5)c4[nH]3)cn2)CCN1CCC(=O)O` [Example 8, 3-[(2S)-4-(5-{5-[6-Cyclopropyl-5-(trifluoromethyl)pyridin-3-yl]-7-[{[1-(methoxymethyl)cyclohexyl]methyl}(methyl)amino]-1H-imidazo[4,5-b]pyridin-2-yl}pyrazin-2-yl)-2-(methoxymethyl)piperazin-1-yl]propanoic acid] it was 374%; in that of `COCC1(CN(C)c2cc(-c3cnc(C4CC4)c(C(F)(F)F)c3)nc3nc(-c4ccc(OC5CCN(CC(=O)O)CC5)cc4F)[nH]c23)CCCC1` [Example 10, [4-(4-{5-[6-Cyclopropyl-5-(trifluoromethyl)pyridin-3-yl]-7-[{[1-(methoxymethyl)cyclopentyl]methyl}(methyl)amino]-1H-imidazo[4,5-b]pyridin-2-yl}-3-fluorophenoxy)piperidin-1-yl]acetic acid], 82.6%; in that of `CCOc1cc(-c2cc(N(C)CC3(COC)CCC3)c3[nH]c(-c4cnc(N5CCC(C(=O)O)CC5)cn4)nc3n2)cc(C(F)(F)F)n1` [Example 11, 1-(5-{5-[2-Ethoxy-6-(trifluoromethyl)pyridin-4-yl]-7-[{[1-(methoxymethyl)cyclobutyl]methyl}(methyl)amino]-1H-imidazo[4,5-b]pyridin-2-yl}pyrazin-2-yl)piperidine-4-carboxylic acid dihydrochloride], 270%. Still for that read-out and setting: then `CCOCC1(CN(C)c2cc(-c3cnc(C4CC4)c(C(F)(F)F)c3)nc3nc(-c4cnc(N5CCN(CCC(=O)O)C[C@H]5C)cn4)[nH]c23)CCCC1` [Example 14, Sodium 3-[(3R)-4-(5-{5-[6-cyclopropyl-5-(trifluoromethyl)pyridin-3-yl]-7-[{[1-(ethoxymethyl)cyclopentyl]methyl}(methyl)amino]-1H-imidazo[4,5-b]pyridin-2-yl}pyrazin-2-yl)-3-methylpiperazin-1-yl]propanoate], with 400%. Consider `CCOc1cc(-c2cc(N(C)CC3(COC)CCCC3)c3[nH]c(-c4cnc(N5[C@@H]6CC[C@H]5C[C@@H](OCC(=O)O)C6)cn4)nc3n2)cc(C(F)(F)F)n1` [Example 15, Sodium {[(1R,3r,5S)-8-(5-{5-[2-ethoxy-6-(trifluoromethyl)pyridin-4-yl]-7-[{[1-(methoxymethyl)cyclopentyl]methyl}(methyl)amino]-1H-imidazo[4,5-b]pyridin-2-yl}pyrazin-2-yl)-8-azabicyclo[3.2.1]octan-3-yl]oxy}acetate], for which, in the data set on SD female rats [1], the change in vivo at 0.3 mg/kg is 276%. Turning to `COCC1(CN(C)c2cc(-c3cc(C4CC4)nc(C(F)(F)F)c3)nc3nc(-c4cnc(N5CCN(CCC(=O)O)C[C@H]5C)cn4)[nH]c23)CCCCC1` [Example 16, Sodium 3-[(3R)-4-(5-{5-[2-cyclopropyl-6-(trifluoromethyl)pyridin-4-yl]-7-[{[1-(methoxymethyl)cyclohexyl]methyl}(methyl)amino]-1H-imidazo[4,5-b]pyridin-2-yl}pyrazin-2-yl)-3-methylpiperazin-1-yl]propanoate], the change in vivo at 0.3 mg/kg in the data set on SD female rats [1] (setting [3]) came out at 182%. As for `COCC1(CN(C)c2cc(-c3cnc(C4CC4)c(C(F)(F)F)c3)nc3nc(-c4cnc(N5CCN(CCC(=O)O)C[C@H]5C)cn4)[nH]c23)CCCC1` [Example 20, Sodium 3-[(3R)-4-(5-{5-[6-Cyclopropyl-5-(trifluoromethyl)pyridin-3-yl]-7-[{[1-(methoxymethyl)cyclopentyl]methyl}(methyl)amino]-1H-imidazo[4,5-b]pyridin-2-yl}pyrazin-2-yl)-3-methylpiperazin-1-yl]propanoate], the change in vivo at 0.3 mg/kg with SD female rats [1] (setting [3]) turned out to be 249%.

With `COCC1(CN(C)c2cc(-c3cc(F)cc(C(F)(F)F)c3)nc3nc(-c4cnc(N5CCN(CC(=O)O)CC5)cn4)[nH]c23)CCC1` [Example 37], the change in vivo at 0.3 mg/kg with SD female rats [1] (setting [3]) was determined as 91.2%. Same read-out and setting: then `COCC1(CN(C)c2cc(-c3cc(F)cc(C(F)(F)F)c3)nc3nc(-c4cnc(N5CCC(F)(C(=O)O)CC5)cn4)[nH]c23)CCC1` [Example 38], with 98.1%; and `CCOc1ncc(-c2cc(N(C)CC3(COC)CCC3)c3[nH]c(-c4cnc(N5CCC(C(=O)O)CC5)cn4)nc3n2)cc1C(F)(F)F` [Example 42], with 119%; and `CCOc1ncc(-c2cc(N(C)CC3(COC)CCCC3)c3[nH]c(-c4ccc(N5CCC(C(=O)O)CC5)cc4F)nc3n2)cc1C(F)(F)F` [Example 68], with 133%. With `CN(CCCCCCN(C)C(=O)Oc1ccc[n+](C)c1)C(=O)Oc1ccc[n+](C)c1` [distigmine bromide, reference compound], the “nicotinic side effect (fasciculation)” value in the data set with SD female rats [2] is reported as “observed”. Besides, the “enhancement effect on bladder contractility” value in the data set on SD female rats [1] (anesthetized rats, intravenous, test compound 0.3 mg/kg, distigmine bromide 0.03, 0.1 mg/kg, electrical stimulation of pelvic nerve) was “showed enhancement of bladder contractility”.
